Assay results as given in PubChem BioAssay AID330 (DTP/NCI, 2004).
“And” between values parts separate entries of the source, which are not always exact repeats. Equal entries are not always repeated. Toxic doses and inconclusive results are not listed.

Tested on: P388 leukemia ip, CD2F1 mice, survival T/C
Assay: NCI In Vivo Anticancer Drug Screen. Data for tumor model P388 Leukemia (intraperitoneal) in CD2F1 (CDF1) mice
Settings: endpoint: median survival time, higher = longer survival
In short: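 Mice carrying the transplanted tumor received test compound or vehicle. Survival was recorded in each group, and the value is the treated-group measurement divided by that of the vehicle-treated control group.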

[1] = dose: 50.0 mg/kg/injection, schedule: Q01DX005 (ip), vehicle: saline with Tween-80
[2] = dose: 100.0 mg/kg/injection, schedule: Q01DX005 (ip), vehicle: saline with Tween-80
[3] = dose: 200.0 mg/kg/injection, schedule: Q01DX005 (ip), vehicle: saline with Tween-80
[4] = dose: 50.0 mg/kg/injection, schedule: Q01DX005 (ip), vehicle: Klucel (hydroxypropylcellulose) (HPC)
[5] = dose: 100.0 mg/kg/injection, schedule: Q01DX005 (ip), vehicle: Klucel (hydroxypropylcellulose) (HPC)
[6] = dose: 50.0 mg/kg/injection, schedule: Q01DX009 (ip), vehicle: saline with Tween-80
[7] = dose: 100.0 mg/kg/injection, schedule: Q01DX009 (ip), vehicle: saline with Tween-80
[8] = dose: 200.0 mg/kg/injection, schedule: Q01DX009 (ip), vehicle: saline with Tween-80
[9] = dose: 60.0 mg/kg/injection, schedule: Q01DX005 (ip), vehicle: saline with Tween-80
[10] = dose: 120.0 mg/kg/injection, schedule: Q01DX005 (ip), vehicle: saline with Tween-80
[11] = dose: 50.0 mg/kg/injection, schedule: Q01DX009 (ip), vehicle: saline
[12] = dose: 100.0 mg/kg/injection, schedule: Q01DX009 (ip), vehicle: saline
[13] = dose: 200.0 mg/kg/injection, schedule: Q01DX009 (ip), vehicle: saline
[14] = dose: 50.0 mg/kg/injection, schedule: Q01DX009 (ip), vehicle: Klucel (hydroxypropylcellulose) (HPC)
[15] = dose: 100.0 mg/kg/injection, schedule: Q01DX009 (ip), vehicle: Klucel (hydroxypropylcellulose) (HPC)
[16] = dose: 200.0 mg/kg/injection, schedule: Q01DX009 (ip), vehicle: Klucel (hydroxypropylcellulose) (HPC)
[17] = dose: 200.0 mg/kg/injection, schedule: Q04DX003 (ip), vehicle: saline with Tween-80
[18] = dose: 400.0 mg/kg/injection, schedule: Q04DX003 (ip), vehicle: saline with Tween-80
[19] = dose: 60.0 mg/kg/injection, schedule: Q01DX005 (ip), vehicle: Klucel (hydroxypropylcellulose) (HPC)
[20] = dose: 120.0 mg/kg/injection, schedule: Q01DX005 (ip), vehicle: Klucel (hydroxypropylcellulose) (HPC)

## CCC1c2ccccc2[C@H]2C(c3ccccc3)=NN(c3ccccc3)[C@H]2N1CC (stereo partly drawn)
[1]
  T/C: 100 % of control
[2]
  T/C: 92 % of control
[3]
  T/C: 90 % of control

## CN(C)c1ccc(C=C2C(=O)OC(C)(C)OC2=O)cc1
[4]
  T/C: 114 % of control
[5]
  T/C: 105 % of control
dose: 200.0 mg/kg/injection, schedule: Q01DX005 (ip), vehicle: Klucel (hydroxypropylcellulose) (HPC)
  T/C: 114 % of control

## CC(=O)OC[N+]1(C)CCCCC1
[6]
  T/C: 111 % of control
[7]
  T/C: 106 % of control
[8]
  T/C: 116 % of control

## COc1ccc(OC)c(NCCCN2C(=O)c3ccccc3C2=O)c1
[9]
  T/C: 90 % of control
[10]
  T/C: 86 % of control

## O=C1CSC(=O)N1c1ccc(F)cc1
dose: 6.25 mg/kg/injection, schedule: Q01DX009 (ip), vehicle: saline
  T/C: 98 % of control
dose: 12.5 mg/kg/injection, schedule: Q01DX009 (ip), vehicle: saline
  T/C: 113 % of control
dose: 25.0 mg/kg/injection, schedule: Q01DX009 (ip), vehicle: saline
  T/C: 114 % of control
[6]
  T/C: 106 % of control
[7]
  T/C: 104 % of control
[8]
  T/C: 87 % of control

## CC(C)=CBr
[11]
  T/C: 105 % of control
[12]
  T/C: 105 % of control
[13]
  T/C: 110 % of control

## CCN(CC)CC1(CC(=O)N2c3ccccc3Sc3ccccc32)COC1
[11]
  T/C: 107 % of control
[12]
  T/C: 100 % of control
[13]
  T/C: 105 % of control

## OC1(c2ccccc2)c2ccc(Br)cc2-c2cc(Br)ccc21
[7]
  T/C: 101 % of control
[8]
  T/C: 104 % of control
dose: 400.0 mg/kg/injection, schedule: Q01DX009 (ip), vehicle: saline with Tween-80
  T/C: 100 % of control

## CC1(CO)CSC(Nc2ccc(F)cc2)=N1 (stereo not drawn)
[6]
  T/C: 104 % of control
[7]
  T/C: 98 % of control
[8]
  T/C: 104 % of control

## Cn1cnc2cc(N3CCCCC3)c([N+](=O)[O-])cc2c1=O
[14]
  T/C: 101 % of control
[15]
  T/C: 107 % of control
[16]
  T/C: 99 % of control

## CC(C)OC(=O)c1ccc(=O)oc1
dose: 100.0 mg/kg/injection, schedule: Q04DX003 (ip), vehicle: Klucel (hydroxypropylcellulose) (HPC)
  T/C: 105 % of control
dose: 200.0 mg/kg/injection, schedule: Q04DX003 (ip), vehicle: Klucel (hydroxypropylcellulose) (HPC)
  T/C: 99 % of control
dose: 400.0 mg/kg/injection, schedule: Q04DX003 (ip), vehicle: Klucel (hydroxypropylcellulose) (HPC)
  T/C: 110 % of control

## O=C1N/C(=N/OF)C(F)C(NO)N1 (stereo not drawn)
[14]
  T/C: 103 % of control
[15]
  T/C: 103 % of control
[16]
  T/C: 101 % of control

## CN(C)c1ccc(C(c2cc3c(cc2O)OCO3)N2CCCCC2)cc1 (stereo not drawn)
[9]
  T/C: 113 % of control
[10]
  T/C: 121 % of control

## CCOC(=O)CC(=O)c1sc(Nc2ccccc2)c(C#N)c1N
[1]
  T/C: 98 % of control
[2]
  T/C: 90 % of control
[3]
  T/C: 90 % of control

## CSc1nc2ccc(N)cc2s1
dose: 100.0 mg/kg/injection, schedule: Q04DX003 (ip), vehicle: saline with Tween-80
  T/C: 97 % of control
[17]
  T/C: 99 % of control
[18]
  T/C: 93 % of control

## CC(C)C(Nc1ncnc2c1CCc1ccccc1-2)C(=O)O (stereo not drawn)
dose: 50.0 mg/kg/injection, schedule: Q04DX002 (ip), vehicle: saline with Tween-80
  T/C: 95 % of control
dose: 100.0 mg/kg/injection, schedule: Q04DX002 (ip), vehicle: saline with Tween-80
  T/C: 100 % of control

## Cc1c(O)/c(=C\O)c2nc3c(=O)ccc(C(=O)NCCN(C)C)c3[nH]c2c1=O
dose: 6.25 mg/kg/injection, schedule: Q01DX005 (ip), vehicle: other
  T/C: 117 % of control
dose: 7.5 mg/kg/injection, schedule: Q03HX015 (ip), vehicle: water
  T/C: 160 % of control
dose: 12.5 mg/kg/injection, schedule: Q01DX005 (ip), vehicle: other
  T/C: 120 % of control
dose: 15.0 mg/kg/injection, schedule: Q03HX015 (ip), vehicle: water
  T/C: 177 % of control
dose: 50.0 mg/kg/injection, schedule: Q01DX005 (ip), vehicle: other
  T/C: 123 % of control

## CCCN=C(C)NO
dose: 50.0 mg/kg/injection, schedule: Q01DX005 (ip), vehicle: saline
  T/C: 98 % of control
dose: 100.0 mg/kg/injection, schedule: Q01DX005 (ip), vehicle: saline
  T/C: 101 % of control
dose: 200.0 mg/kg/injection, schedule: Q01DX005 (ip), vehicle: saline
  T/C: 102 % of control

## OC(Cc1ccnc2ccccc12)C(Cl)(Cl)Cl (stereo not drawn)
[17]
  T/C: 104 % of control
[18]
  T/C: 90 % of control

## OCCN1CCN(CCCOC2=Nc3ccccc3O/C2=C/c2ccccc2)CC1
dose: 25.0 mg/kg/injection, schedule: Q04DX003 (ip), vehicle: saline
  T/C: 100 % of control
dose: 50.0 mg/kg/injection, schedule: Q04DX003 (ip), vehicle: saline
  T/C: 100 % of control
dose: 100.0 mg/kg/injection, schedule: Q04DX003 (ip), vehicle: saline
  T/C: 98 % of control and 101 % of control

## COc1ccc([C@@H]2c3cc4c(cc3C[C@H]3COC(=O)[C@@H]32)OCO4)cc1OC
dose: 25.0 mg/kg/injection, schedule: Q04DX002 (ip), vehicle: Klucel (hydroxypropylcellulose) (HPC)
  T/C: 108 % of control
dose: 100.0 mg/kg/injection, schedule: Q04DX002 (ip), vehicle: Klucel (hydroxypropylcellulose) (HPC)
  T/C: 124 % of control

## CSc1cc(C)c(O)c(CO)c1
dose: 100.0 mg/kg/injection, schedule: Q04DX003 (ip), vehicle: other
  T/C: 104 % of control
dose: 200.0 mg/kg/injection, schedule: Q04DX003 (ip), vehicle: other
  T/C: 100 % of control
dose: 400.0 mg/kg/injection, schedule: Q04DX003 (ip), vehicle: other
  T/C: 100 % of control

## NC(=O)C(N)CCCC1NC(=S)N(c2ccccc2)C1=O (stereo not drawn)
[19]
  T/C: 92 % of control
[20]
  T/C: 93 % of control
dose: 240.0 mg/kg/injection, schedule: Q01DX005 (ip), vehicle: Klucel (hydroxypropylcellulose) (HPC)
  T/C: 86 % of control

## CC(C)=CCOc1ccc2ccc(=O)oc2c1
dose: 5.0 mg/kg/injection, schedule: Q01DX009 (ip), vehicle: saline with Tween-80
  T/C: 106 % of control
dose: 10.0 mg/kg/injection, schedule: Q01DX009 (ip), vehicle: saline with Tween-80
  T/C: 108 % of control
dose: 20.0 mg/kg/injection, schedule: Q01DX009 (ip), vehicle: saline with Tween-80
  T/C: 103 % of control

## O=C1CCC2CCCCC2N1 (stereo not drawn)
[14]
  T/C: 94 % of control
[15]
  T/C: 86 % of control

## C=C(COCNc1ccc(Cl)cc1Cl)C(=O)O
[14]
  T/C: 105 % of control
[15]
  T/C: 89 % of control
[16]
  T/C: 99 % of control

## CCOC(=O)C(=Cc1ccccc1Cl)C(=O)OCC
dose: 25.0 mg/kg/injection, schedule: Q01DX009 (ip), vehicle: saline with Tween-80
  T/C: 100 % of control and 111 % of control
[6]
  T/C: 110 % of control
[7]
  T/C: 102 % of control and 120 % of control
[8]
  T/C: 116 % of control

## CC1OC(=Nc2ccccc2)NC1=O (stereo not drawn)
dose: 100.0 mg/kg/injection, schedule: Q01DX001 (ip), vehicle: saline with Tween-80
  T/C: 97 % of control
dose: 200.0 mg/kg/injection, schedule: Q01DX001 (ip), vehicle: saline with Tween-80
  T/C: 89 % of control

## CN(C)CC/C=C1\c2ccccc2Sc2ccc(Cl)cc21
dose: 12.5 mg/kg/injection, schedule: Q01DX005 (ip), vehicle: Klucel (hydroxypropylcellulose) (HPC)
  T/C: 107 % of control and 112 % of control
dose: 25.0 mg/kg/injection, schedule: Q01DX005 (ip), vehicle: Klucel (hydroxypropylcellulose) (HPC)
  T/C: 117 % of control and 120 % of control
[4]
  T/C: 117 % of control

## Cc1cc(Br)c(NC(=O)c2c(-c3c(Cl)cccc3Cl)noc2C)c(Br)c1
[19]
  T/C: 88 % of control
[20]
  T/C: 95 % of control

## COC(=O)c1[nH]c(=O)c(C#N)c(C(=O)OC)c1C(=O)/C=C/c1ccccc1
[9]
  T/C: 100 % of control
[10]
  T/C: 96 % of control
dose: 240.0 mg/kg/injection, schedule: Q01DX005 (ip), vehicle: saline with Tween-80
  T/C: 90 % of control

## Cc1ccc2ccccc2c1C(=N)c1cc2ccccc2c2ccccc12
[4]
  T/C: 105 % of control
[5]
  T/C: 87 % of control
